From patent publication US8512681B2 (GUMLINK A/S, priority 2005, dated 2013) come the findings set out here.

The subject of this assay is plaque. As to conditions: in chewing gum.

Consider `CC(=O)[O-].CC(=O)[O-].[Zn+2]` [zinc acetate], for which the “effect on plaque in hard-to-reach places (in words)” value is recorded as “worked in the “hard-to-reach” places with high efficiency”.
